Toxic doses and inconclusive results are not listed. Rule as the data show it: active = T/C of 150% or more; inactive = T/C below 125%.
Tested on: L1210 leukemia ip in BDF1 mice, survival T/C
Assay: NCI In Vivo Anticancer Drug Screen. Data for tumor model L1210 Leukemia (intraperitoneal) in B6D2F1 (BDF1) mice
Conditions: endpoint: mean survival time, higher = longer survival
Procedure, shortened: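 Transplanted-tumor mice were given test agent; controls received vehicle only. Survival readings from the two groups were divided (treated over control).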

[1] = dose: 100.0 mg/kg/injection, schedule: Q04DX003 (ip), vehicle: Klucel (hydroxypropylcellulose) (HPC)
[2] = dose: 200.0 mg/kg/injection, schedule: Q04DX003 (ip), vehicle: Klucel (hydroxypropylcellulose) (HPC)
[3] = dose: 400.0 mg/kg/injection, schedule: Q04DX003 (ip), vehicle: Klucel (hydroxypropylcellulose) (HPC)

Measured: T/C

CC(=O)OCC(C)([N+](=O)[O-])[N+](=O)[O-]
inactive: dose: 100.0 mg/kg/injection, schedule: Q01DX009 (ip), vehicle: saline with Tween-80 93 % of control | dose: 100.0 mg/kg/injection, schedule: Q04DX003 (ip), vehicle: saline with Tween-80 95 % of control | dose: 200.0 mg/kg/injection, schedule: Q01DX009 (ip), vehicle: saline with Tween-80 90 % of control | dose: 200.0 mg/kg/injection, schedule: Q04DX003 (ip), vehicle: saline with Tween-80 101 % of control | dose: 400.0 mg/kg/injection, schedule: Q01DX009 (ip), vehicle: saline with Tween-80 91 % of control | dose: 400.0 mg/kg/injection, schedule: Q04DX003 (ip), vehicle: saline with Tween-80 103 % of control

CCCCCCCCCCC[CH2][Hg][Cl]
inactive: dose: 6.25 mg/kg/injection, schedule: Q04DX003 (ip), vehicle: Klucel (hydroxypropylcellulose) (HPC) 93 % of control

CCCC/C=C1\CCCC(C)C1 (stereo unspecified)
inactive: dose: 100.0 mg/kg/injection, schedule: Q04DX002 (ip), vehicle: saline 101 % of control | dose: 200.0 mg/kg/injection, schedule: Q04DX002 (ip), vehicle: saline 101 % of control | dose: 400.0 mg/kg/injection, schedule: Q04DX002 (ip), vehicle: saline 97 % of control

O=C(O)C1C2CCC1C(O)C2 (stereo unspecified)
inactive: dose: 100.0 mg/kg/injection, schedule: Q01DX001 (ip), vehicle: saline with Tween-80 107 % of control | dose: 200.0 mg/kg/injection, schedule: Q01DX001 (ip), vehicle: saline with Tween-80 94 % of control | dose: 400.0 mg/kg/injection, schedule: Q01DX001 (ip), vehicle: saline with Tween-80 97 % of control

COc1ccc2c(c1OC)C1(CCN(C)C#N)CCCCC1CC2 (stereo unspecified)
inactive: dose: 100.0 mg/kg/injection, schedule: Q01DX001 (ip), vehicle: Klucel (hydroxypropylcellulose) (HPC) 95 % of control | dose: 200.0 mg/kg/injection, schedule: Q01DX001 (ip), vehicle: Klucel (hydroxypropylcellulose) (HPC) 95 % of control | dose: 400.0 mg/kg/injection, schedule: Q01DX001 (ip), vehicle: Klucel (hydroxypropylcellulose) (HPC) 86 % of control

CN(CCC(=O)c1cccc2ccccc12)Cc1ccccc1
inactive: dose: 50.0 mg/kg/injection, schedule: Q01DX009 (ip), vehicle: Klucel (hydroxypropylcellulose) (HPC) 98 % of control | dose: 100.0 mg/kg/injection, schedule: Q01DX009 (ip), vehicle: Klucel (hydroxypropylcellulose) (HPC) 97 % of control | [1] 100 % of control | dose: 200.0 mg/kg/injection, schedule: Q01DX009 (ip), vehicle: Klucel (hydroxypropylcellulose) (HPC) 92 % of control | [2] 91 % of control | dose: 400.0 mg/kg/injection, schedule: Q01DX009 (ip), vehicle: Klucel (hydroxypropylcellulose) (HPC) 95 % of control | [3] 100 % of control

C1CCC(C2CCCC[N-]2)[N-]C1.[Cl][Cu][Cl] (stereo unspecified)
inactive: dose: 1.56 mg/kg/injection, schedule: Q01DX009 (ip), vehicle: Klucel (hydroxypropylcellulose) (HPC) 95 % of control | dose: 3.13 mg/kg/injection, schedule: Q01DX009 (ip), vehicle: Klucel (hydroxypropylcellulose) (HPC) 102 % of control | dose: 6.25 mg/kg/injection, schedule: Q01DX009 (ip), vehicle: Klucel (hydroxypropylcellulose) (HPC) 86 % of control | [1] 109 % of control | [2] 95 % of control | [3] 101 % of control

Cc1cc(N(CCOS(C)(=O)=O)CCOS(C)(=O)=O)ccc1C=Nc1ccc(C(=O)O)cc1
inactive: dose: 2.5 mg/kg/injection, schedule: Q04DX003 (ip), vehicle: Klucel (hydroxypropylcellulose) (HPC) 108 % of control | dose: 5.0 mg/kg/injection, schedule: Q04DX003 (ip), vehicle: Klucel (hydroxypropylcellulose) (HPC) 113 % of control | dose: 6.6 mg/kg/injection, schedule: Q04DX003 (ip), vehicle: Klucel (hydroxypropylcellulose) (HPC) 102 % of control | dose: 10.0 mg/kg/injection, schedule: Q04DX003 (ip), vehicle: Klucel (hydroxypropylcellulose) (HPC) 103 % of control | dose: 15.0 mg/kg/injection, schedule: Q04DX003 (ip), vehicle: Klucel (hydroxypropylcellulose) (HPC) 118 % of control | dose: 20.0 mg/kg/injection, schedule: Q04DX003 (ip), vehicle: Klucel (hydroxypropylcellulose) (HPC) 113 % of control | dose: 40.0 mg/kg/injection, schedule: Q04DX003 (ip), vehicle: Klucel (hydroxypropylcellulose) (HPC) 114 % of control

COC(=O)c1[nH]cnc1/N=N/N(C)C1CCCCC1
inactive: dose: 100.0 mg/kg/injection, schedule: Q01DX001 (ip), vehicle: carboxymethylcellulose (CMC) 91 % of control | dose: 200.0 mg/kg/injection, schedule: Q01DX001 (ip), vehicle: carboxymethylcellulose (CMC) 102 % of control

CN(C)C(=N)CSS(=O)(=O)O
inactive: dose: 100.0 mg/kg/injection, schedule: Q04DX002 (ip), vehicle: Klucel (hydroxypropylcellulose) (HPC) 90 % of control | dose: 200.0 mg/kg/injection, schedule: Q04DX002 (ip), vehicle: Klucel (hydroxypropylcellulose) (HPC) 101 % of control

COC(=N)C/C=C/CC(=N)OC
inactive: dose: 100.0 mg/kg/injection, schedule: Q01DX009 (ip), vehicle: saline 94 % of control | dose: 200.0 mg/kg/injection, schedule: Q01DX009 (ip), vehicle: saline 94 % of control | dose: 400.0 mg/kg/injection, schedule: Q01DX009 (ip), vehicle: saline 92 % of control

CCOC(=O)C(C)Oc1ccc([N+](=O)[O-])cc1[N+](=O)[O-] (stereo unspecified)
inactive: [1] 95 % of control | [2] 90 % of control | [3] 98 % of control
